Experimental data as given in ChEMBL document CHEMBL5321272 (J Med Chem, 2023).
Calls of active or inactive are those of the source. The calls are words filed in the database; no cut-off is given here.

How the values were obtained:
[1] = test system: MV4-11; test: cells; settings: Homo sapiens, MV4-11, 72 h
Description: Antiproliferative activity against human MV4-11 cells assessed as reduction in cell viability incubated for 72 hrs by CellTiter 96 Aqueous One Solution Cell Proliferation Assay

[2] = Selectivity ratio of IC50 for inhibition of c-KIT (unknown origin) to IC50 for inhibition of FLT3 D835Y mutant (unknown origin)
[3] = target: Mast/stem cell growth factor receptor Kit (Homo sapiens, UniProt P10721); test: Inhibition of c-KIT (unknown origin) using peptide substrate TK-S and ATP as substrate incubated for 1 hr by HTRF assay; format: toxicity
[4] = target: Receptor-type tyrosine-protein kinase FLT3 (Homo sapiens, UniProt P36888, D835Y)
Description: Inhibition of FLT3 D835Y mutant (unknown origin) using peptide substrate TK-S and ATP as substrate incubated for 1 hr by HTRF assay

[5] = target: T1, Serine/threonine-protein kinase Chk1 (Homo sapiens, UniProt O14757)
T1 sequence (O14757 whole entry): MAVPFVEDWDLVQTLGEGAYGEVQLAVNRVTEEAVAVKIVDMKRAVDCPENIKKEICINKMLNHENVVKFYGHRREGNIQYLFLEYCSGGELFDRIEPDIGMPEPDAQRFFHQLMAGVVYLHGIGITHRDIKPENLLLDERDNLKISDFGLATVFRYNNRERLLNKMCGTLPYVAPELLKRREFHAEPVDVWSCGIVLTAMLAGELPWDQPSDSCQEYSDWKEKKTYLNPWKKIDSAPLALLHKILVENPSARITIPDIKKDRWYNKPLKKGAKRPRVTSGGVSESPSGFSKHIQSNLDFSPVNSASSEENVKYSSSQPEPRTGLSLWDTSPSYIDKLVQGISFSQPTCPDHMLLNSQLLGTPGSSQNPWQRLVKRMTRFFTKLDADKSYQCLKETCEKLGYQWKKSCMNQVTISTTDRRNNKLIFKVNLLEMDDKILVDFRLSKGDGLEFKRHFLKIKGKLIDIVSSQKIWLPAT
Description: Inhibition of CHK1 (unknown origin) using peptide substrate S1 and ATP as substrate incubated for 1 hr by HTRF assay

[6] = target: hERG (KCNH2) (Homo sapiens, UniProt Q12809); test: Inhibition of hERG expressed in HEK293 cells at 20 uM by whole cell patch clamp analysis; format: toxicity, cell-based; settings: HEK293 cells expressing hERG
[7] = test system: BaF3; test: Antiproliferative activity against mouse BaF3 cells harboring FLT3 D835F mutant assessed as reduction in cell viability incubated for 72 hrs by CellTiter 96 Aqueous One Solution Cell Proliferation Assay; format: functional, cell-based
[8] = test system: BaF3; test: Antiproliferative activity against mouse BaF3 cells harboring FLT3 F691L mutant assessed as reduction in cell viability incubated for 72 hrs by CellTiter 96 Aqueous One Solution Cell Proliferation Assay; format: functional, cell-based
[9] = test system: BaF3; test: Antiproliferative activity against mouse BaF3 cells harboring FLT3 D835V mutant assessed as reduction in cell viability incubated for 72 hrs by CellTiter 96 Aqueous One Solution Cell Proliferation Assay; format: functional, cell-based

Chain of hERG (KCNH2) (Q12809 whole entry): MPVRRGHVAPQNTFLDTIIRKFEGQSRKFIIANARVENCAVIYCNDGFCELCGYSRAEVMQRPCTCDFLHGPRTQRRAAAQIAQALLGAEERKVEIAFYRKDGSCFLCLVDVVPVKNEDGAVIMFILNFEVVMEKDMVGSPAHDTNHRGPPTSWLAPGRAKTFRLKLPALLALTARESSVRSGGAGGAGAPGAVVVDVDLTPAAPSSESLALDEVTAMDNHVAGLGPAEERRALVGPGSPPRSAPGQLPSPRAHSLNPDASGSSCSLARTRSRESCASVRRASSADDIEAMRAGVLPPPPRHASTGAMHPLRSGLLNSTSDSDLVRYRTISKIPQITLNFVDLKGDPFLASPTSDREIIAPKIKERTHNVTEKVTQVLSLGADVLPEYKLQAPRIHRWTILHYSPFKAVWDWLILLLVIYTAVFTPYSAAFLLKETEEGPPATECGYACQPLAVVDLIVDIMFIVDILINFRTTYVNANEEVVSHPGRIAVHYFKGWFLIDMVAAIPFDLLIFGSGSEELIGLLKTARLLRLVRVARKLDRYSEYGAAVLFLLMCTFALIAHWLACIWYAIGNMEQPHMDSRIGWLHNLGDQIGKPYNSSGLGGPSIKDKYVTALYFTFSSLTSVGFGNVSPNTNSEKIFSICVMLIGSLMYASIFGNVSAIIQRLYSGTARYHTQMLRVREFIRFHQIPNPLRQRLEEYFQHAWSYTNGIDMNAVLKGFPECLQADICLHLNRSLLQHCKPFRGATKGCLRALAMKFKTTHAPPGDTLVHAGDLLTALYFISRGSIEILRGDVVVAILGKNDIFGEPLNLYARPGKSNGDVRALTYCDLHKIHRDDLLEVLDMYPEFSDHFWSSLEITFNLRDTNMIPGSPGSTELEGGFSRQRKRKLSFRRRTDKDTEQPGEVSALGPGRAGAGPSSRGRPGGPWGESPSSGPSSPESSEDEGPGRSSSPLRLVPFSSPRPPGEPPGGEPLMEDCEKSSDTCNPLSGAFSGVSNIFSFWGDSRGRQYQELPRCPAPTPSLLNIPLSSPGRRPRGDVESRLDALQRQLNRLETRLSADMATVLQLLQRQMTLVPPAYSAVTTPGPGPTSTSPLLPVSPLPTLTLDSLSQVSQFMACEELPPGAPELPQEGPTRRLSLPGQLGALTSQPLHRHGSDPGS
Chain of Mast/stem cell growth factor receptor Kit (P10721 whole entry): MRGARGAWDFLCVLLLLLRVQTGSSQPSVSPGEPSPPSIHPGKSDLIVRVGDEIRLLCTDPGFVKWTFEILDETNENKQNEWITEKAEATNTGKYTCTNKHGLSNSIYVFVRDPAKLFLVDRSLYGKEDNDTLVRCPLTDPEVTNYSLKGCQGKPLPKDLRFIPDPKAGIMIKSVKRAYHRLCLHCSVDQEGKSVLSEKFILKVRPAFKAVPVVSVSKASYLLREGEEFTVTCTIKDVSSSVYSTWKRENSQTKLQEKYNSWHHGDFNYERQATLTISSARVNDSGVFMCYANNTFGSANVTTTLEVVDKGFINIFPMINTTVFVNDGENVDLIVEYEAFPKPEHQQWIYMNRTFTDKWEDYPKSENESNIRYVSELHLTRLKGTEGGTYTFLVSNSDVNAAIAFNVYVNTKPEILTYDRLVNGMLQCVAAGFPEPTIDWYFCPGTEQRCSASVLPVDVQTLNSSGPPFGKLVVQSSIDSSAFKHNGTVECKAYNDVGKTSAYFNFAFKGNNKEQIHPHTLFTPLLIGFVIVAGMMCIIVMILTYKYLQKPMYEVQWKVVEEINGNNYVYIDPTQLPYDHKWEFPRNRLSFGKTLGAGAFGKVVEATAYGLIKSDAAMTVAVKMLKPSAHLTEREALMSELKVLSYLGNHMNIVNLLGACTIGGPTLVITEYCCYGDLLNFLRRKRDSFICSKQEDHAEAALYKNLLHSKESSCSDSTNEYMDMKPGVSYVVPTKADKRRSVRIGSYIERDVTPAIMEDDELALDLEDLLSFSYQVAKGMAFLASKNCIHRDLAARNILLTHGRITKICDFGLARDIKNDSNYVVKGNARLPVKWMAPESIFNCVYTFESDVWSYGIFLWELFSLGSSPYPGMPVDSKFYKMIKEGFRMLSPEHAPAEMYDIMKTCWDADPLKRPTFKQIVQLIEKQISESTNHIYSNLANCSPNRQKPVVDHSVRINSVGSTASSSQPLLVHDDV

SMILES	IC50 [1]	Ratio IC50 [2]	IC50 [3]	IC50 [4]	IC50 [5]	inhibition at 20 µM [6]	Activity [7]	Activity [8]	Activity [9]
C[C@H](O)C(=O)N1CCc2cc(Nc3ncc(C(F)(F)F)c(N[C@H]4CC[C@@H](N)CC4)n3)ccc2C1	0.28 nM	766	704 nM	0.92 nM	5.1 nM	13.6%	–	–	–
CC(=O)N1CCc2cc(Nc3ncc(C(F)(F)F)c(N[C@H]4CC[C@@H](N)CC4)n3)ccc21	2.07 nM	4870	4780 nM	0.98 nM	10.7 nM	–	Active	Active	Active
CNCCCNc1nc(Nc2ccc3c(c2)CCN(C(=O)CC(C)(C)O)C3)ncc1C(F)(F)F	14.2 nM	–	–	27.3 nM	61.6 nM	–	–	–	–
CC(C)(O)CC(=O)N1CCc2cc(Nc3ncc(C(F)(F)F)c(N[C@H]4CCCC[C@H]4N)n3)ccc2C1	–	–	–	1450 nM	> 10000 nM	–	–	–	–
CC(C)(O)CC(=O)N1CCc2cc(Nc3ncc(C(F)(F)F)c(NCCCNS(C)(=O)=O)n3)ccc2C1	–	–	–	18.1 nM	1950 nM	–	–	–	–
CC(C)(O)CC(=O)N1CCc2cc(Nc3ncc(C(F)(F)F)c(NCCN)n3)ccc2C1	–	–	–	38.2 nM	135 nM	–	–	–	–
CC(C)(O)CC(=O)N1CCc2cc(Nc3ncc(C(F)(F)F)c(NCC4CCNCC4)n3)ccc2C1	6.79 nM	–	–	10.4 nM	87.3 nM	–	–	–	–
CC(C)(O)CC(=O)N1CCc2cc(Nc3ncc(C(F)(F)F)c(NCCCCCN)n3)ccc2C1	12.7 nM	–	–	3.19 nM	159 nM	–	–	–	–
CC(C)(O)CC(=O)N1CCc2cc(Nc3ncc(C(F)(F)F)c(NCCCCN)n3)ccc2C1	0.61 nM	–	–	1.5 nM	41.1 nM	–	–	–	–
CC(C)(O)CC(=O)N1CCc2cc(Nc3ncc(C(F)(F)F)c(N[C@H]4CC[C@@H](NS(C)(=O)=O)CC4)n3)ccc2C1	6.21 nM	–	–	3.8 nM	827 nM	–	–	–	–
Cn1ccc2cc(Nc3ncc(C(F)(F)F)c(N[C@H]4CC[C@@H](N)CC4)n3)ccc2c1=O	–	–	–	–	26.3 nM	75.9%	–	–	–
CC(=O)N1CCc2nc(Nc3ncc(C(F)(F)F)c(N[C@H]4CC[C@@H](N)CC4)n3)ccc2C1	1.45 nM	–	–	61.4 nM	301 nM	–	–	–	–
CC(C)(O)Cn1ccc2cc(Nc3ncc(C(F)(F)F)c(NC4CC5(CNC5)C4)n3)ccc2c1=O	66.2 nM	–	–	26.6 nM	80.1 nM	–	–	–	–
CC(C)(O)CC(=O)N1CCc2cc(Nc3ncc(C(F)(F)F)c(NC[C@H]4CCCNC4)n3)ccc2C1	2.71 nM	–	–	12 nM	86.5 nM	–	–	–	–
CC(C)(O)CC(=O)N1CCc2cc(Nc3ncc(C(F)(F)F)c(NCCCN)n3)ccc2C1	2.38 nM	–	–	3.79 nM	34.5 nM	11.2%	–	–	–
CC(C)(O)CC(=O)N1CCc2cc(Nc3ncc(C(F)(F)F)c(N[C@@H]4CCCNC4)n3)ccc2C1	2.26 nM	–	–	4.03 nM	35.2 nM	35%	–	–	–
CC(C)(O)CC(=O)N1CCc2cc(Nc3ncc(C(F)(F)F)c(NCC(C)(C)CN)n3)ccc2C1	27.9 nM	–	–	91.4 nM	1060 nM	–	–	–	–
CC(=O)N1CCc2ccc(Nc3ncc(C(F)(F)F)c(N[C@H]4CC[C@@H](N)CC4)n3)cc21	36 nM	–	–	9.84 nM	58 nM	–	–	–	–
CC(C)(O)CC(=O)N1CCc2cc(Nc3ncc(C(F)(F)F)c(NC[C@@H]4CCCNC4)n3)ccc2C1	8.26 nM	–	–	24.1 nM	336 nM	–	–	–	–
CC(C)(O)CC(=O)N1CCc2cc(Nc3ncc(C(F)(F)F)c(NC4CCNCC4)n3)ccc2C1	22.4 nM	–	–	40.9 nM	227 nM	–	–	–	–

SMILES	IC50 [1]	Ratio IC50 [2]	IC50 [3]	IC50 [4]	IC50 [5]	inhibition at 20 µM [6]	Activity [7]	Activity [8]	Activity [9]
CCn1ccc2cc(Nc3ncc(C(F)(F)F)c(N[C@H]4CC[C@@H](N)CC4)n3)ccc2c1=O	0.99 nM	–	–	1.59 nM	26.7 nM	–	–	–	–
CC(C)(O)CC(=O)N1CCc2nc(Nc3ncc(C(F)(F)F)c(N[C@H]4CC[C@@H](N)CC4)n3)ccc2C1	21.4 nM	–	–	77.1 nM	362 nM	–	–	–	–
Cn1cnc2cc(Nc3ncc(C(F)(F)F)c(N[C@H]4CC[C@@H](N)CC4)n3)ccc2c1=O	1.77 nM	–	–	8.8 nM	223 nM	48.3%	–	–	–
CC(C)(N)CCNc1nc(Nc2ccc3c(c2)CCN(C(=O)CC(C)(C)O)C3)ncc1C(F)(F)F	0.62 nM	–	–	3.32 nM	219 nM	31.9%	–	–	–
N#Cc1cnc(Nc2cc(NC[C@H]3CNCCO3)c(C(F)(F)F)cn2)cn1 [SRA-737]	245 nM	–	–	–	–	–	–	–	–
N[C@H]1CC[C@@H](Nc2nc(Nc3ccc4c(c3)CN(C(=O)CO)C4)ncc2C(F)(F)F)CC1	0.14 nM	1870	1990 nM	1.06 nM	7.6 nM	–	Active	Active	Active
CC(C)(O)Cn1cnc2cc(Nc3ncc(C(F)(F)F)c(N[C@H]4CC[C@@H](N)CC4)n3)ccc2c1=O	1.59 nM	–	–	4.56 nM	206 nM	6.82%	–	–	–
CC(C)(O)Cn1ccc2cc(Nc3ncc(C(F)(F)F)c(N[C@H]4CC[C@@H](N)CC4)n3)ccc2c1=O	0.62 nM	–	–	3.91 nM	124 nM	22.1%	–	–	–
CC(C)(O)C(=O)N1CCc2cc(Nc3ncc(C(F)(F)F)c(N[C@H]4CC[C@@H](N)CC4)n3)ccc2C1	0.38 nM	589	902 nM	1.53 nM	8.6 nM	17.7%	–	–	–
Cn1ncc2cc(Nc3ncc(C(F)(F)F)c(N[C@H]4CC[C@@H](N)CC4)n3)ccc2c1=O	1.36 nM	–	–	4.22 nM	58.5 nM	81.9%	–	–	–
CC(=O)NCCCNc1nc(Nc2ccc3c(c2)CCN(C(=O)CC(C)(C)O)C3)ncc1C(F)(F)F	44.5 nM	–	–	16.1 nM	765 nM	–	–	–	–
CC(=O)N[C@H]1CC[C@@H](Nc2nc(Nc3ccc4c(c3)CCN(C(=O)CC(C)(C)O)C4)ncc2C(F)(F)F)CC1	20.7 nM	–	–	18.9 nM	1090 nM	–	–	–	–
CC(C)(O)C(=O)N1CCc2nc(Nc3ncc(C(F)(F)F)c(N[C@H]4CC[C@@H](N)CC4)n3)ccc2C1	9.51 nM	–	–	55.4 nM	250 nM	–	–	–	–
CC(C)(N)CNc1nc(Nc2ccc3c(c2)CCN(C(=O)CC(C)(C)O)C3)ncc1C(F)(F)F	39.7 nM	–	–	166 nM	2000 nM	–	–	–	–
CC(C)(O)CC(=O)N1CCc2cc(Nc3ncc(C(F)(F)F)c(N[C@@H]4CCCC[C@@H]4N)n3)ccc2C1	–	–	–	224 nM	1970 nM	–	–	–	–
CC(C)(O)CC(=O)N1CCc2cc(Nc3ncc(C(F)(F)F)c(N[C@H]4CCCNC4)n3)ccc2C1	–	–	–	311 nM	952 nM	–	–	–	–
CC(C)(O)Cn1ccc2cc(Nc3ncc(C(F)(F)F)c(N[C@H]4C[C@H]5CC[C@@H](C4)N5)n3)ccc2c1=O	> 5000 nM	–	–	488 nM	2020 nM	–	–	–	–
CC(C)(O)Cn1ncc2cc(Nc3ncc(C(F)(F)F)c(N[C@H]4CC[C@@H](N)CC4)n3)ccc2c1=O	1.1 nM	–	–	2.69 nM	66.9 nM	48.1%	–	–	–
CC(C)(O)CC(=O)N1CCc2cc(Nc3ncc(C(F)(F)F)c(N[C@H]4CC[C@H](N)CC4)n3)ccc2C1	5.89 nM	–	–	12 nM	96 nM	–	–	–	–
